Bridge positions count the residues as written; N and C are the ends. Square brackets hold non-standard residues; d marks the D form. Peptide text beside a SMILES is read from it.
Assay: ANTS/DPX leakage assay
Conditions: peptide 5–50 μM, 10 min
Description: The destabilization of membrane vesicles by 12 was explored measuring its effect on the release of encapsulated fluorophores in both LUVs mimicking Gram-positive and Gram-negative membranes. ANTS and DPX fluorophores were encapsulated in LUVs, and ANTS release was measured to evaluate the transient pore formation.
The dry lipid films (Cf = 100 μM) were dissolved with a solution of ANTs (12.5 mM) and DPX (45 mM) in water (2 mL) and then lyophilized overnight. The lipid films with encapsulated ANTS and DPX were hydrated with PBS 1× buffer and treated to obtain LUVs using the extrusion method.[81] Then, nonencapsulated ANTs and DPX were separated from liposomes by gel filtration using a Sephadex G-50 column (1.5 cm × 10 cm) at room temperature. Initially, liposomes contain both ANTs and DPX, and DPX efficiently quenches ANT fluorescence by collisional transfer.[82] When LUVs were treated with peptide concentrations of 5, 10, 15, 20, 30, and 50 μM, we measured the leakage of vesicles by measuring the dequenching of ANTS released into the medium. Changes in the fluorescence of 2 mL of ANTS/DPX LUV samples were monitored setting an excitation fluorescence at 385 nm (slit width, 5 nm) and a fluorescence emission at 512 nm (slit width, 5 nm) for 10 min after the addition of the peptide. […]

## CC[C@H](C)[C@H](NC(=O)[C@H](CCCNC(=N)N)NC(=O)[C@@H]1CCC(=O)NCCCC[C@H](NC(=O)[C@H](Cc2ccccc2)NC(=O)[C@H](Cc2c[nH]c3ccccc23)NC(=O)[C@@H]2CCCN2C(=O)[C@@H](NC(=O)[C@@H](N)Cc2ccccc2)C(C)C)C(=O)N[C@@H](CCCCN)C(=O)N[C@@H](Cc2ccccc2)C(=O)N[C@H](CC(C)C)C(=O)N1)C(=O)N[C@@H](CC(C)C)C(N)=O [compound 12] (H-FVPWFKKF[dL]ERIL-NH2; lactam 6-10)
LUVs mimicking Gram-negative membranes
  leakage of LUVs (ANTS release): significant leakage ability
LUVs mimicking Gram-positive membranes
  leakage of LUVs (ANTS release): low leakage effect
